SMILES strings stand for the structures.

Experimental findings from the METLIN SMRT retention time set (Domingo-Almenara et al. 2019) are described below.

This data set can be described thus: gradient 5% acetonitrile 3 min, to 50% in 2 min, to 85% in 15 min, held 3 min, 100 µL/min. As to conditions: column: Zorbax Extend-C18 2.1 x 50 mm; eluents: water / acetonitrile, 0.1% formic acid. The method in brief:
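A Zorbax Extend-C18 column (2.1 × 50 mm, 1.8 μm) run at 100 μL/min with water and acetonitrile, both containing 0.1% formic acid, separated mixtures of ~100 pure standards. The HPLC was coupled to a quadrupole time-of-flight mass spectrometer operated in positive and negative ionization mode, with dead and dwell volumes of 40 μL and 900 μL. Each retention time was taken from a computationally picked adduct peak that was then manually inspected.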
The compound `Cc1nc(CCNC(=O)C(C)(C)C)no1` displayed an RP-LC retention time of 619 s. In the case of `O=C(COc1ccccc1)Nc1c(C(=O)N2CCN(c3ccccn3)CC2)oc2ccccc12` it was 760 s; in that of `CCCn1cc(SCC(N)=O)c2ccccc21`, 730 s. `N[C@H]1C[C@@H]1c1ccccc1` showed an RP-LC retention time of 578 s. In the case of `COc1ccc2[nH]cc(CCN3CC(C(=O)NC4CCCC4)CC3=O)c2c1` (stereo not given) it was 709 s; in that of `Cc1cccc(CNc2cc(-n3cccn3)ncn2)c1`, 648 s. In the case of `O=C(COc1ccccc1)N1CCN(Cc2ccccc2)c2ncccc21` it was 884 s; in that of `C=CCn1c(C)c(CC(=O)NC(C)CC)c(=O)n2nc(-c3ccccc3)nc12` (stereo not given), 818 s; in that of `CC1CCc2cc(F)ccc2N1C(=O)C12CCC(C1)C(C)(C)C2=O` (stereo not given), 1020 s.

As to `CCn1nc(N2CCCC(NS(=O)(=O)c3ccc(F)c(Cl)c3)C2)ccc1=O` (stereo not given), the RP-LC retention time amounted to 817 s.

As for `CCOC(=O)C1=C(C)NC2=C(C(=O)C(C(=O)OC)C(C)C2)C1c1cccc(OCC)c1` (stereo not given), the RP-LC retention time is 908 s.

Compound `COc1ccc(C)cc1NC(=O)CCCn1cccc1` gave an RP-LC retention time of 876 s.

`COCCN1C(=O)Cc2ccccc2C1C(=O)NCc1ccc(C)o1` (stereo not given) gave an RP-LC retention time of 637 s. In the case of `CCCNC(=O)c1ccccc1OCc1nc(-c2ccccc2)no1` it was 954 s. In the case of `Cc1nn(-c2ccc(-c3ccccc3)nn2)c(C)c1S(=O)(=O)N1CCN(C(C)C)CC1` it was 683 s; in that of `COCc1nncn1C1CCN(S(=O)(=O)c2cc(Cl)ccc2OC)CC1`, 736 s. With `COc1ccc(CCc2nc(C3CC(=O)N(c4ccc(Cl)cc4)C3)no2)cc1` (stereo not given), the RP-LC retention time turned out to be 1050 s.

In turn, `Cc1ccccc1CNC(=O)C1(C)CCCN(C(=O)Nc2ccccc2C)C1` (stereo not given) gave an RP-LC retention time of 959 s. In the case of `COc1ccc2c(c1)C(C(=O)N(Cc1ccc(N(C)C)cc1)c1ccc(C(C)C)cc1)CCC2` (stereo not given) it was 1260 s. In the case of `Cc1nc(N2CCOCC2)c2c(C(=O)N3CCCc4ccccc43)c(C)oc2n1` it was 853 s. Take `Cn1nc(N2CCC(NC(=O)Cc3ccncc3)C2)ccc1=O` (stereo not given): the RP-LC retention time turned out to be 549 s. In the case of `Cc1ccc(Nc2nc3ccncc3n(C(C)C)c2=O)cc1F` it was 722 s; in that of `O=C(C1CCCN(c2ncnc3c2nc2n3CCCCC2)C1)N(Cc1ccco1)C1CCCC1` (stereo not given), 950 s; in that of `O=C(Cn1cccc1-c1nnc(C2CCC2)o1)Nc1ccc(Cl)cc1`, 968 s. In the case of `Cc1cc(C)c(S(=O)(=O)NCC2CN(C)CC23CCCCC3)c(C)c1` (stereo not given) it was 590 s; in that of `CC1=C(C(=O)Nc2ccccc2F)C2(CCN(C(C)C)CC2)OC1=O`, 613 s; in that of `CC(=O)N1CCc2sc(C(=O)N3CCN(c4ccc(Cl)cc4)CC3)cc2C1`, 837 s. In the case of `CCOC(Cn1c(-c2ccc(OC)cc2)nc2ccccc21)OCC` it was 713 s; in that of `C(#Cc1ccccc1)CN1CCN(c2ccccn2)CC1`, 553 s. Regarding `Cc1ccc(-c2ncccc2CNS(=O)(=O)Cc2cccc(Cl)c2)cc1`, the RP-LC retention time amounted to 741 s. In the case of `CCOc1ccc(CNC(=O)C2CCCN(c3ncnc4c3oc3ccccc34)C2)cc1` (stereo not given) it was 784 s; in that of `COc1ccc(N2CCN(S(=O)(=O)c3cc(-c4csc(C)n4)sc3C)CC2)cc1`, 1090 s; in that of `Cc1c(Cl)cccc1Nc1c(-c2ccc3c(c2)OCO3)nc2cnccn12`, 975 s. In the case of `O=C(Nc1cnc(N2CCCCCC2)nc1)c1ccc(F)cc1F` it was 954 s; in that of `Cc1sc(-c2noc(C(C)C)n2)cc1S(=O)(=O)N1CCC(C(=O)N2CCC(C)CC2)CC1`, 1150 s. Take `CCOC(=O)c1ccc(NC(=O)N2CCc3cn(CC)c4cccc(c34)C2)cc1`: the RP-LC retention time came to 1150 s. In the case of `O=C1[C@H]2CN(Cc3cccc(F)c3)C[C@H]2C(=O)N1Cc1ccc2c(c1)OCO2` it was 800 s; in that of `COCCOc1ccc2c(n1)CCN(C(=O)NC1CCCC1)C2`, 724 s.

For the compound `O=C(CCc1nc(CSc2nnc(-c3ccccc3)o2)no1)Nc1nccs1`, the RP-LC retention time is 766 s.

`O=C(Cn1cccc(-c2nc(-c3ccccc3)no2)c1=O)Nc1ccccc1Br` came in with an RP-LC retention time of 898 s. In the case of `CCOc1nc2ccccc2nc1N1CCCC(C(=O)Nc2ccc(C(C)C)cc2)C1` (stereo not given) it was 1240 s; in that of `Cc1ccc(S(=O)(=O)Nc2cccc(-c3cn4cccc(C)c4n3)c2)c(C)c1`, 703 s.

`COc1ccc(N2CC(C(=O)NC(C(=O)N3CCCc4ccccc43)c3ccccc3)CC2=O)cc1` (stereo not given) registered an RP-LC retention time of 900 s. In the case of `COc1cccc(C(=O)CSc2ccc(-n3nc(C)cc3C)nn2)c1` it was 931 s. Consider `CC(C)(C)c1csc(-c2csc(S(=O)(=O)Nc3ccccc3)c2)n1`, for which the RP-LC retention time amounted to 1180 s.

For the compound `COc1ccc(C(=O)N2CCC3(CC2)N=C(c2ccc(Br)cc2)NO3)cc1OC`, the RP-LC retention time is 820 s. In the case of `Cc1ccc(CN2C(=O)N(c3ccc(F)cc3)c3ncccc3S2(=O)=O)cc1` it was 1100 s; in that of `CSc1nnc(Cc2nnc(SC)n2-c2ccccc2)n1-c1ccccc1`, 784 s; in that of `Cc1ccc(Nc2c(-c3ccc(Cl)cc3)nc3cnccn23)cc1Cl`, 1150 s. In the case of `Cc1cc(OCC(=O)N(Cc2ccc(N(C)C)cc2)C2CCS(=O)(=O)C2)ccc1Cl` (stereo not given) it was 839 s; in that of `Cc1nc(-c2ccc(OC3CCN(C(=O)NCC(C)C)C3)cc2)no1` (stereo not given), 809 s.

Consider `N#Cc1ccc(C(=O)Nc2cnc(-c3ccc(Cl)cc3)nc2)cc1`, for which the RP-LC retention time is 1070 s. In the case of `COC(=O)c1sccc1NC(=O)N1CCCn2nc(-c3cccc(Cl)c3)cc2C1` it was 972 s; in that of `O=C(NCCCN1CCCC1)c1c2c(nc3ccccc13)C(=O)N(C1CCCCC1)C2`, 595 s. In the case of `CCNC(=O)C1CCCN(S(=O)(=O)c2c[nH]c(C(=O)N3CCCCCC3)c2)C1` (stereo not given) it was 699 s; in that of `Cc1ccc(Cl)cc1NC(=O)CSc1nc(N2CCCCC2)nc2ccccc12`, 849 s.

Consider `CCn1nc(C)n2cc(S(=O)(=O)NCc3ccc(Cl)cc3)cc2c1=O`, for which the RP-LC retention time is 904 s. In the case of `CN(c1nccn2c(=O)n(CC(=O)Nc3cc(F)ccc3F)nc12)C1CCCCC1` it was 786 s; in that of `Cc1ccc(CNC(=O)CCc2ccc3nc(-c4ccccc4)[nH]c3c2)o1`, 625 s; in that of `CC1(C(=O)NCc2ccc(F)cc2)Cn2cnc(C(=O)NCCc3ccccc3)c2C(=O)N1C1CC1` (stereo not given), 772 s. In the case of `Cc1ccc(C(=O)N2CCCC(COc3ccc(C(=O)NC4CC4)cc3)C2)cc1F` (stereo not given) it was 849 s. In turn, `Cc1nc2cc(-c3noc(-c4nn(C)c5ccccc45)n3)ccc2o1` had an RP-LC retention time of 1040 s. `O=C(OCc1cc(-c2cccs2)on1)c1ncc(-c2ccccc2)o1` registered an RP-LC retention time of 1060 s.

`COC(=O)c1c(NCCc2cccs2)c2ccc(F)cc2[nH]c1=O` returned an RP-LC retention time of 766 s. On to `CCCCC(=O)Nc1ccc2nc(N3CCN(c4ccc(OC)cc4)CC3)cc(C(=O)O)c2c1`, for which the RP-LC retention time is 673 s. In the case of `COc1ccc(C2(C(=O)N3CCCC(c4nnnn4C)C3)CC2)cc1` (stereo not given) it was 706 s; in that of `CS(=O)(=O)N[C@H]1C[C@@H]2C[C@H]1CN2C(=O)c1ccc(C(F)(F)F)cc1`, 571 s. In the case of `COc1cc(NC(=O)CCl)ccc(=O)c1` it was 631 s. In the case of `O=C(CN1CCC2(CC1)N=C(c1ccc(F)cc1)C(=O)N2)Nc1ccc(F)cc1F` it was 666 s; in that of `N#Cc1ccc(C(=O)N2CCN(S(=O)(=O)c3cc(-c4noc(C5CCC5)n4)cs3)CC2)cc1`, 975 s. With `CCN1C(=O)c2cc(C(=O)Nc3cccc(Cl)c3)nn2CC1(C)C(=O)NC1CCCC1` (stereo not given), the RP-LC retention time amounted to 887 s. In the case of `CCOC(=O)c1[nH]c(C)c(CCC(=O)N2CCC(C(=O)N3CCOCC3)CC2)c1C` it was 646 s; in that of `O=C1COc2ccccc2N1Cc1nc(-c2cccc(Cl)c2)no1`, 1060 s. In the case of `N#Cc1cccc(NC(=O)C2CCN(S(=O)(=O)c3ccc4[nH]c(=O)ccc4c3)CC2)c1` it was 706 s; in that of `Cc1ccc(NC(=O)Cn2c(C)cc(-c3nnc(C4CCC4)o3)c2C)cc1C`, 902 s. Compound `CC(C)NC(=O)C1CCCN(c2nc3ncn(CC(=O)Nc4ccccc4Cl)c(=O)c3s2)C1` (stereo not given) showed an RP-LC retention time of 741 s.

In turn, `COc1ccc(-c2nc3cc(C)ccn3c2NC(=O)c2ccc(Cl)c([N+](=O)[O-])c2)cc1` came in with an RP-LC retention time of 736 s. In the case of `CSc1ccc(-c2nc3cnccn3c2Nc2ccc(F)cc2)cc1` it was 927 s; in that of `Cc1cc(C(=O)NCC2CCN(C(=O)NC(C)(C)C)CC2)no1`, 649 s.

For `COCCCN1CN=C(Nc2nc(C)c3cccc(OC)c3n2)NC1`, the RP-LC retention time worked out at 615 s.
